This note sets out measurements from patent US4094979A, “Orally active cephalosporins” (American Home Products Corporation, priority 1976, dated 1978).

Assay [1] relates to My Sm 10143. Put plainly: in vitro agar serial dilution, MIC. Type of assay: cell-based. The following applies: strain 10143.
Assay [2] deals with Es Co 9637. Put plainly: in vitro agar serial dilution, MIC. The following applies: strain 9637. Type of assay: cell-based.
Assay [3] deals with Pr Mi 9921. Put plainly: in vitro agar serial dilution, MIC. Type of assay: cell-based. The note with it: strain 9921.
Assay [4] deals with Sa Pa 11737. The experiment in a line: in vitro agar serial dilution, MIC. Type of assay: cell-based. The following applies: strain 11737.
The subject of assay [5] is Es In 65-1. Put plainly: in vitro agar serial dilution, MIC. Type of assay: cell-based. The note with it: strain 65-1.
Assay [6] relates to Kl Pn 10031. The experiment in a line: in vitro agar serial dilution, MIC. Type of assay: cell-based. The note with it: strain 10031.
In assay [7] the test system is Ne Ca 819. Put plainly: in vitro agar serial dilution, MIC. Type of assay: cell-based. The note with it: strain 819.
The test system of assay [8] is St Au Smith. Put plainly: in vitro agar serial dilution, MIC. Type of assay: cell-based. The following applies: strain Smith.
Assay [9] concerns Ps Ae 10145. Put plainly: in vitro agar serial dilution, MIC. Type of assay: cell-based. The note with it: strain 10145.
For assay [10], the system named is St Au 6538P. Put plainly: in vitro agar serial dilution, MIC. Type of assay: cell-based. The note with it: strain 6538P.
Assay [11] deals with St Au CHP. Put plainly: in vitro agar serial dilution, MIC. Type of assay: cell-based. The following applies: strain CHP.
In assay [12] the test system is St Au 53-180. Put plainly: in vitro agar serial dilution, MIC. Type of assay: cell-based. The following applies: strain 53-180.
Assay [13] concerns Proteus vulgaris (347). The experiment in a line: oral antibacterial activity in intraperitoneally infected CD-1 mice. Type of assay: in vivo. As for the experimental part: (§1) The oral antibacterial activity of the compounds of this invention was establihsed by intraperitoneally infecting four groups of 10 male mice CD-1 strain weighing 17-19 grams with 0.5 milliliter of a standardized suspension of bacterium in 5 percent gastric mucin. The animals were then randomized and at 6 hours post infection a single dose of the antibacterial compound being tested was given orally at 7.2, 3.6, 1.8 and 0.9 mg/mouse to each group of 10 mice.
(§2) Testing against E. Coli (920-LD95), as a general representative of gram-negative bacteria, was followed by testing against Proteus vulgaris (347) as an example of a special application against a gram negative bacterium. In the oral anti-bacterial activity test, an arbitrary maximum dose is set at 7.2 milligrams per mouse below which activity must be found before a compound is considered orally active. The arbitrary maximum dose of 7.2 milligrams per mouse represents a practical dose limit in terms of the potency of known orally active antibacterial agents.

In assay [14] the test system is E. Coli (920). Described as above. Type of assay: in vivo. The procedure:
as §1, §2

Assay [15] relates to St Au (Smith). The assay is described as above. Type of assay: in vivo. As for the experimental part:
as §1, §2

The subject of assay [16] is En Ae 13048. The experiment in a line: in vitro agar serial dilution, MIC. Type of assay: cell-based. The following applies: strain 13048.
For assay [17], the system named is Pr Mi. The experiment in a line: oral antibacterial activity in intraperitoneally infected CD-1 mice. Type of assay: in vivo. The following applies: P.O., single dose 6 hours post infection, 14 days. As for the experimental part:
as §1, §2

The subject of assay [18] is Kl Pn. The description is as above. Type of assay: in vivo. The following applies: P.O., single dose 6 hours post infection, 14 days. As for the experimental part:
as §1, §2

Assay [19] has as its system St Py. The description is as above. Type of assay: in vivo. The note with it: P.O., single dose 6 hours post infection, 14 days. As for the experimental part:
as §1, §2

Assay [20] relates to E. Coli (E-3). The assay is described as above. Type of assay: in vivo. The procedure: as §1, §2
Assay [21] has as its system E. Coli (E-2). Described as above. Type of assay: in vivo. The procedure: as §1, §2
The subject of assay [22] is E. Coli W-102. The description is as above. Type of assay: in vivo. The following applies: E. Coli W-102, at 7.2 mg/mouse. As for the experimental part: as §1, §2
[23] abbreviates: Pr Bu, P.O., single dose 6 hours post infection, 14 days.
The mark [24] stands for this setting: E. Coli, P.O., single dose 6 hours post infection, 14 days.
[25] abbreviates: P.O., single dose 6 hours post infection, 14 days.

Values after ≈ are worked out from the molar mass of the structure shown. Where a name gives a salt, the structure may show the parent alone.

As a reminder, the MIC is the smallest concentration in the dilution series that meets the test's criterion for growth inhibition. Take `Cn1nnnc1SCC1=C(C(=O)O)N2C(=O)C(NC(=O)CCN3C(=O)CSC3=S)C2SC1` (stereo not drawn) [Example 1 acid]: the MIC in assay [1] was 250 µg/mL (≈ 485 µM); in assay [2] it was 3.9 µg/mL (≈ 7.56 µM); in assay [3] it was 0.97 µg/mL (≈ 1.88 µM); in [4], 0.97 µg/mL (≈ 1.88 µM); in assay [5] it was 62.5 µg/mL (≈ 121 µM); in assay [6] it was 3.9 µg/mL (≈ 7.56 µM). Also, the MIC in assay [7] turned out to be 31.3 µg/mL (≈ 60.7 µM); in assay [8], 1.95 µg/mL (≈ 3.78 µM); in [9], 250 µg/mL (≈ 485 µM); in [10] it was 1.95 µg/mL (≈ 3.78 µM); in [11] it was 7.81 µg/mL (≈ 15.1 µM); in assay [12] it was 3.9 µg/mL (≈ 7.56 µM). This compound also registered a minimal inhibitory concentration (MIC) in [16] of 250 µg/mL (≈ 485 µM). For the same compound, the CD50 in assay [13] (Pr vulgaris (Pr-347), buffered to pH 4.9 in aqueous solution) was found to be 5.97 mg/mouse; in assay [14] (E. Coli (920), buffered to pH 4.9 in aqueous solution), 2.97 mg/mouse; in assay [15] (buffered to pH 4.9 in aqueous solution) it was 2.73 mg/mouse.

As for `CC1=C(C(=O)O)N2C(=O)[C@@H](NC(=O)[C@H](N)C3=CCC=CC3)[C@H]2SC1` [Cephradine, reference compound], the CD50 in assay [17] is recorded as 2.25 mg/mouse; in assay [13] (setting [23]) it was 6.52 mg/mouse; in assay [14] (setting [24]), 2.27 mg/mouse; in assay [18], 2.42 mg/mouse; in [19], less than 0.45 mg/mouse; in assay [15] (setting [25]), 0.140 mg/mouse.

For the compound `Cn1nnnc1SCC1=C(C(=O)O)N2C(=O)C(NC(=O)CCN3C(=O)CSC3=S)C2SC1` (stereo not drawn) [Ex. 1-Na salt], the CD50 is 4.49 mg/mouse in assay [17]; 5.97 mg/mouse in assay [13] (setting [23]); 2.35 mg/mouse in assay [14] (setting [24]); 1.36 mg/mouse in [18]; more than 3.6 mg/mouse in assay [19]; 2.73 mg/mouse in assay [15] (setting [25]).

For `Cn1nnnc1SCC1=C(C(=O)O)N2C(=O)C(NC(=O)CCN3C(=O)CSC3=S)C2SC1` (stereo not drawn), the CD50 came to 2.12 mg/mouse in assay [20]; 3.30 mg/mouse in assay [21]; 5.90 mg/mouse in assay [13] (Pr vulgaris (347), oral); 3.05 mg/mouse in assay [14] (E. Coli (920), oral). For the same compound, the oral antibacterial activity entry in assay [22] is “inactive”.
